Patent US12077503B2, “Substituted cyclic amides and their use as herbicides” (FMC CORPORATION, priority 2015, dated 2024)

What was measured:
Assay type in all cases: in vivo
Kochia (Kochia scoparia) [1] = test: Test A preemergence; conditions: for Plant response rating, Kochia: 125 g ai/ha; for Kochia plant response rating (0 to 100 scale, 0 is no effect, 100 is complete control): 500 g ai/ha, visual injury approx. 10 d
Summary of the method: (§1)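 In a loam soil and sand blend, planted seeds got a preemergence directed soil spray, and young plants at the one- to two-leaf stage, 2–10 cm high, got a postemergence application; ~10 d greenhouse hold; injury rated visually, 0 = none, 100 = complete control.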

[2] = tested on: barnyardgrass (Echinochloa crus-galli); test: Test A preemergence; conditions: for Plant response rating, Barnyardgrass: 125 g ai/ha; for Barnyardgrass plant response rating (0 to 100 scale, 0 is no effect, 100 is complete control): 500 g ai/ha, visual injury approx. 10 d
Summary of the method: as §1

[3] = tested on: giant foxtail (Setaria faberii); test: Test A preemergence; conditions: for Plant response rating, Foxtail, Giant: 125 g ai/ha; for Foxtail, Giant plant response rating (0 to 100 scale, 0 is no effect, 100 is complete control): 500 g ai/ha, visual injury approx. 10 d
Summary of the method: as §1

[4] = tested on: pigweed (Amaranthus retroflexus); test: Test A preemergence; conditions: for Plant response rating, Pigweed: 125 g ai/ha; for Pigweed plant response rating (0 to 100 scale, 0 is no effect, 100 is complete control): 500 g ai/ha, visual injury approx. 10 d
[5] = tested on: ragweed (common ragweed, Ambrosia elatior); test: Test A preemergence; conditions: for Plant response rating, Ragweed: 125 g ai/ha; for Ragweed plant response rating (0 to 100 scale, 0 is no effect, 100 is complete control): 500 g ai/ha, visual injury approx. 10 d
Summary of the method: as §1

[6] = tested on: ryegrass, Italian (Italian ryegrass, Lolium multiflorum); test: Test A preemergence; conditions: for Plant response rating, Ryegrass, Italian: 125 g ai/ha; for Ryegrass, Italian plant response rating (0 to 100 scale, 0 is no effect, 100 is complete control): 500 g ai/ha, visual injury approx. 10 d
Summary of the method: as §1

[7] = tested on: Galium (catchweed bedstraw, Galium aparine); test: Test A postemergence; conditions: for Galium plant response rating: 125 g ai/ha, visual injury rating on 0 to 100 scale (0 no effect, 100 complete control), approx. 10 d; for Plant response rating, Galium: 500 g ai/ha
Summary of the method: as §1

Kochia (Kochia scoparia) [8] = test: Test A postemergence; conditions: for Kochia plant response rating: 125 g ai/ha, visual injury rating on 0 to 100 scale (0 no effect, 100 complete control), approx. 10 d; for Plant response rating, Kochia: 500 g ai/ha
Summary of the method: as §1

[9] = tested on: barnyardgrass (Echinochloa crus-galli); test: Test A postemergence; conditions: for Barnyardgrass plant response rating: 125 g ai/ha, visual injury rating on 0 to 100 scale (0 no effect, 100 complete control), approx. 10 d; for Plant response rating, Barnyardgrass: 500 g ai/ha
Summary of the method: as §1

[10] = tested on: blackgrass (Alopecurus myosuroides); test: Test A postemergence; conditions: for Blackgrass plant response rating: 125 g ai/ha, visual injury rating on 0 to 100 scale (0 no effect, 100 complete control), approx. 10 d; for Plant response rating, Blackgrass: 500 g ai/ha
Summary of the method: as §1

corn (Zea mays) = test: Test A postemergence; conditions: for Corn plant response rating: 125 g ai/ha, visual injury rating on 0 to 100 scale (0 no effect, 100 complete control), approx. 10 d; for Plant response rating, Corn: 500 g ai/ha
Summary of the method: as §1

[11] = tested on: giant foxtail (Setaria faberii); test: Test A postemergence; conditions: for Foxtail, Giant plant response rating: 125 g ai/ha, visual injury rating on 0 to 100 scale (0 no effect, 100 complete control), approx. 10 d; for Plant response rating, Foxtail, Giant: 500 g ai/ha
Summary of the method: as §1

[12] = tested on: pigweed (Amaranthus retroflexus); test: Test A postemergence; conditions: for Pigweed plant response rating: 125 g ai/ha, visual injury rating on 0 to 100 scale (0 no effect, 100 complete control), approx. 10 d; for Plant response rating, Pigweed: 500 g ai/ha
Summary of the method: as §1

[13] = tested on: ragweed (common ragweed, Ambrosia elatior); test: Test A postemergence; conditions: for Ragweed plant response rating: 125 g ai/ha, visual injury rating on 0 to 100 scale (0 no effect, 100 complete control), approx. 10 d; for Plant response rating, Ragweed: 500 g ai/ha
Summary of the method: as §1

[14] = tested on: ryegrass, Italian (Italian ryegrass, Lolium multiflorum); test: Test A postemergence; conditions: for Ryegrass, Italian plant response rating: 125 g ai/ha, visual injury rating on 0 to 100 scale (0 no effect, 100 complete control), approx. 10 d; for Plant response rating, Ryegrass, Italian: 500 g ai/ha
Summary of the method: as §1

[15] = tested on: wheat (Triticum aestivum); test: Test A postemergence; conditions: for Wheat plant response rating: 125 g ai/ha, visual injury rating on 0 to 100 scale (0 no effect, 100 complete control), approx. 10 d; for Plant response rating, Wheat: 500 g ai/ha
Summary of the method: as §1

[16] = tested on: barnyardgrass (Echinochloa crus-galli); test: Test B flooded paddy test; conditions: Flood, 0 to 100 scale where 0 is no effect and 100 is complete control, 13 to 15 d
Summary of the method: (§2)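 2-leaf plants; pots flooded 3 cm over soil; cpd added to paddy water; depth held; greenhouse 13–15 d; visual rating vs controls, 0 = no effect, 100 = complete control.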

[17] = tested on: ducksalad (Heteranthera limosa); test: Test B flooded paddy test; conditions: Flood, 0 to 100 scale where 0 is no effect and 100 is complete control, 13 to 15 d
Summary of the method: as §2

rice (Oryra sativa) = test: Test B flooded paddy test; conditions: Flood, 0 to 100 scale where 0 is no effect and 100 is complete control, 13 to 15 d
Summary of the method: as §2

[18] = tested on: sedge, umbrella (small-flower umbrella sedge, Cyperus difformis); test: Test B flooded paddy test; conditions: Flood, 0 to 100 scale where 0 is no effect and 100 is complete control, 13 to 15 d
Summary of the method: as §2

[19] = tested on: lambsquarters (Chenopodium album); test: Test C preemergence; conditions: for Plant response rating, Lambsquarters: scale 0 to 100, 0 no effect, 100 complete control
Summary of the method: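 Visual rating, 0–100 scale (0 = no effect, 100 = complete control) versus controls, 13–15 d after treatment. Compounds in non-phytotoxic solvent plus surfactant; applied preemergence to seeds in loam/sand soil or postemergence to 1- to 4-leaf plants (2–18 cm) in peat/vermiculite medium; greenhouse-held.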

[20] = preemergence, 0 to 100 scale (0 no effect, 100 complete control)
[21] = postemergence, 0 to 100 scale, 0 no effect, 100 complete control
[22] = Preemergence, visual injury after approximately 10 d, 0 to 100 scale where 0 is no effect and 100 is complete control
[23] = Postemergence, 0 to 100 scale where 0 is no effect and 100 is complete control

SMILES: O=C1NCC(c2cccc(OC(F)F)c2)C1C(=O)Nc1ccc(F)cc1F (centres unmarked) [Compound 421]
- Plant response rating, Kochia (Kochia (Kochia scoparia) [1]; [20]): 70
- Kochia plant response rating (0 to 100 scale, 0 is no effect, 100 is complete control) (Kochia (Kochia scoparia) [1]; Preemergence): 80
- Plant response rating, Barnyardgrass [2, 20]: 90
- Barnyardgrass plant response rating (0 to 100 scale, 0 is no effect, 100 is complete control) ([2]; Preemergence): 90
- Plant response rating, Foxtail, Giant [3, 20]: 90
- Foxtail, Giant plant response rating (0 to 100 scale, 0 is no effect, 100 is complete control) ([3]; Preemergence): 90
- Plant response rating, Pigweed [4, 20]: 20
- Pigweed plant response rating (0 to 100 scale, 0 is no effect, 100 is complete control) ([4]; Preemergence): 40
- Plant response rating, Ragweed [5, 20]: 30
- Ragweed plant response rating (0 to 100 scale, 0 is no effect, 100 is complete control) ([5]; Preemergence): 40
- Plant response rating, Ryegrass, Italian [6, 20]: 0
- Ryegrass, Italian plant response rating (0 to 100 scale, 0 is no effect, 100 is complete control) ([6]; Preemergence): 30
- Galium plant response rating ([7]; postemergence): 50
- Plant response rating, Galium [7, 21]: 60
- Kochia plant response rating (Kochia (Kochia scoparia) [8]; postemergence): 0
- Plant response rating, Kochia (Kochia (Kochia scoparia) [8]; [21]): 20
- Barnyardgrass plant response rating ([9]; postemergence): 70
- Plant response rating, Barnyardgrass [9, 21]: 90
- Blackgrass plant response rating ([10]; postemergence): 20
- Plant response rating, Blackgrass [10, 21]: 50
- Corn plant response rating (corn (Zea mays); postemergence): 0
- Plant response rating, Corn (corn (Zea mays); [21]): 70
- Foxtail, Giant plant response rating ([11]; postemergence): 80
- Plant response rating, Foxtail, Giant [11, 21]: 90
- Pigweed plant response rating ([12]; postemergence): 0
- Plant response rating, Pigweed [12, 21]: 30
- Ragweed plant response rating ([13]; postemergence): 20
- Plant response rating, Ragweed [13, 21]: 30
- Ryegrass, Italian plant response rating ([14]; postemergence): 20
- Plant response rating, Ryegrass, Italian [14, 21]: 40
- Wheat plant response rating ([15]; postemergence): 0
- Plant response rating, Wheat [15, 21]: 40
- Plant response rating, Barnyardgrass ([16]; 500 g ai/ha): 75
- Plant response rating, Ducksalad ([17]; 500 g ai/ha): 100
- Plant response rating, Rice (rice (Oryra sativa); 500 g ai/ha): 15
- Plant response rating, Sedge, Umbrella ([18]; 500 g ai/ha): 0
- Plant response rating, Lambsquarters ([19]; 31 g ai/ha): 10
- Plant response rating, Lambsquarters ([19]; 62 g ai/ha): 35
- Plant response rating, Lambsquarters ([19]; 125 g ai/ha): 60
- Plant response rating, Lambsquarters ([19]; 250 g ai/ha): 70

SMILES: O=C1NCC(c2cc(F)cc(C(F)(F)F)c2)C1C(=O)Nc1cccc(F)c1F (centres unmarked) [Compound 488]
- Plant response rating, Kochia (Kochia (Kochia scoparia) [1]; [22]): 70
- Kochia plant response rating (0 to 100 scale, 0 is no effect, 100 is complete control) (Kochia (Kochia scoparia) [1]; Preemergence): 70
- Plant response rating, Barnyardgrass [2, 22]: 90
- Barnyardgrass plant response rating (0 to 100 scale, 0 is no effect, 100 is complete control) ([2]; Preemergence): 90
- Plant response rating, Foxtail, Giant [3, 22]: 90
- Foxtail, Giant plant response rating (0 to 100 scale, 0 is no effect, 100 is complete control) ([3]; Preemergence): 90
- Plant response rating, Pigweed [4, 22]: 50
- Pigweed plant response rating (0 to 100 scale, 0 is no effect, 100 is complete control) ([4]; Preemergence): 70
- Plant response rating, Ragweed [5, 22]: 70
- Ragweed plant response rating (0 to 100 scale, 0 is no effect, 100 is complete control) ([5]; Preemergence): 80
- Plant response rating, Ryegrass, Italian [6, 22]: 30
- Ryegrass, Italian plant response rating (0 to 100 scale, 0 is no effect, 100 is complete control) ([6]; Preemergence): 70
- Galium plant response rating ([7]; postemergence): 50
- Plant response rating, Galium [7, 23]: 50
- Kochia plant response rating (Kochia (Kochia scoparia) [8]; postemergence): 30
- Plant response rating, Kochia (Kochia (Kochia scoparia) [8]; [23]): 60
- Barnyardgrass plant response rating ([9]; postemergence): 90
- Plant response rating, Barnyardgrass [9, 23]: 90
- Blackgrass plant response rating ([10]; postemergence): 60
- Plant response rating, Blackgrass [10, 23]: 70
- Corn plant response rating (corn (Zea mays); postemergence): 70
- Plant response rating, Corn (corn (Zea mays); [23]): 80
- Foxtail, Giant plant response rating ([11]; postemergence): 90
- Plant response rating, Foxtail, Giant [11, 23]: 90
- Pigweed plant response rating ([12]; postemergence): 40
- Plant response rating, Pigweed [12, 23]: 50
- Ragweed plant response rating ([13]; postemergence): 20
- Plant response rating, Ragweed [13, 23]: 20
- Ryegrass, Italian plant response rating ([14]; postemergence): 30
- Plant response rating, Ryegrass, Italian [14, 23]: 60
- Wheat plant response rating ([15]; postemergence): 50
- Plant response rating, Wheat [15, 23]: 60
- Plant response rating, Barnyardgrass ([16]; 250 g ai/ha): 65
- Plant response rating, Ducksalad ([17]; 250 g ai/ha): 90
- Plant response rating, Rice (rice (Oryra sativa); 250 g ai/ha): 30
- Plant response rating, Sedge, Umbrella ([18]; 250 g ai/ha): 0
- Plant response rating (scale of 0 to 100), Lambsquarters ([19]; 31 g ai/ha, 0 is no effect, 100 is complete control): 20
- Plant response rating, Lambsquarters ([19]; 62 g ai/ha): 50
- Plant response rating, Lambsquarters ([19]; 125 g ai/ha): 60
- Plant response rating, Lambsquarters ([19]; 250 g ai/ha): 60
